The values that follow come from patent US9133170B2, “Inhibitors of HCV NS5A” (priority 2011, dated 2015).

This assay has as its system GT-1a pRLuc H77 1b 75 S/I subgenomic replicon cell line. Nature of the assay: HCV GT-1a subgenomic replicon Renilla luciferase reporter assay. The assay is classed as cell-based. As to conditions: Hepatitis C virus, GT1A, Huh-7, 72 h, read-out: GT-1a-IC50. An excerpt: Determination of compounds HCV GT1b inhibitory replicon activity using the replicon luciferase reporter assay
The 2209-23 cell line was developed at Roche by stable transfection of the hepatoma cell line Huh-7 with a GT-1b Con1 subgenomic bicistronic replicon as previously described. Subgenomic replicon cell line was established in cured Huh7 cells, obtained from R. Bartenschlager (J Virol. 2003 March; 77 (5):3007-19) The GT-1a H77 subgenomic replicon vector pRLuc H77 1b 75 S/I, was created by replacing the non structural region of the GT-1b Con1 subgenomic replicon by the one of the H77 strain, except for the first 75 amino acids of the NS3 protein that are from GT-1b Con1 strain. (J Virol. 2001 77:5352-59) The GT-1a pRLuc H77 1b 75 S/I subgenomic replicon cell line was established in cured Huh7 cells, obtained from R. Bartenschlager (J Virol. 2003 March; 77 (5):3007-19).
All the subgenomic replicon cell lines were cultured in Dulbecco's Modified Eagle Medium (DMEM-Glutamax™-I; Invitrogen Cat #10569-010). The medium was supplemented with 10% Fetal Bovine Serum (Invitrogen Cat #10082-147), 1% penicillin/streptomycin (Mediatech Cat # 30-002-CI) and 500 μg/ml of G418 (Mediatech Cat #30-234-CI). Cells were maintained at 37° C. in a humidified 5% CO2 atmosphere.
2209-23 cells were plated at a cell density of 5000 cells per well in 96 well plates (Becton Dickinson, Cat #35 3296). Cells were plated in 90 μl of Dulbecco's Modified Eagle Medium (DMEM-Glutamax™-I), (Invitrogen Cat #10569-010) medium was supplemented with 5% Fetal Bovine Serum (Invitrogen Cat #10082-147), 1% penicillin/streptomycin (Mediatech Cat #30-002-CI). The pRluc H77 1b 75 S/I cells were plated in 96-well plate at 3000 cells/well in DMEM-Glutamax™-I containing 5% FBS and 1% penicillin/streptomycin in 90 μl final volume. Cells were allowed to equilibrate for 24 hours at 37° C. and 5% CO2 at which time compounds were added. Compounds (or medium as a control) were added 24 hours post-plating in 3 fold dilutions at a final DMSO concentration of 1% in 10 ul volume. Renilla luciferase reporter signal was read 72 hours after addition of compounds using the Renilla Luciferase Assay System (Promega, cat #E2820). EC50 values were defined as the compound concentration at which a 50% reduction in the levels of renilla luciferase reporter was observed as compared to control samples in the absence of compound and was determined by non-linear fitting of compound dose-response data. The EC50 was approximated if maximum percentage inhibition was less than 90% and more than 70%.
(In general: Replicon systems follow genome replication, usually without infectious particles.)
For `COC(=O)N[C@H]1CCc2cccc3c2N(C1=O)[C@H](C(=O)N1CCC[C@H]1C(=O)Nc1ccc(-c2ccc(-c4cnc([C@@H]5CCCN5C(=O)[C@@H](NC(=O)OC)C(C)C)[nH]4)cc2)cc1)C3` [Compound I-1, {(2S,5S)-2-[(S)-2-(4′-{2-[(S)-1-((S)-2-Methoxycarbonylamino-3-methyl-butyryl)-pyrrolidin-2-yl]-3H-imidazol-4-yl}-biphenyl-4-ylcarbamoyl)-pyrrolidine-1-carbonyl]-4-oxo-1,2,4,5,6,7-hexahydro-azepino[3,2,1-hi]indol-5-yl}-carbamic acid methyl ester], the IC50 (as a rule, the concentration that gives 50% inhibition) came to 8.38 nM.

In the case of `COC(=O)N[C@H]1CCC(=O)N2CCC[C@@H](C(=O)N3CCC[C@H]3C(=O)Nc3ccc(-c4ccc(-c5cnc([C@@H]6CCCN6C(=O)[C@@H](NC(=O)OC)C(C)C)[nH]5)cc4)cc3)N2C1=O` [Compound I-2, {(4S,7S)-4-[(S)-2-(4′-{2-[(S)-1-((S)-2-Methoxycarbonylamino-3-methyl-butyryl)-pyrrolidin-2-yl]-3H-imidazol-4-yl}-biphenyl-4-ylcarbamoyl)-pyrrolidine-1-carbonyl]-6,10-dioxo-octahydro-pyridazino[1,2-a][1,2]diazepin-7-yl}-carbamic acid methyl ester], the IC50 worked out at 190 nM.

`COC(=O)N[C@H]1CCc2cccc3c2N(C1=O)[C@H](C(=O)N1CCC[C@H]1C(=O)Nc1ccc(-c2ccc(-c4cnc([C@@H]5CC(F)(F)CN5C(=O)[C@@H](NC(=O)OC)C(C)C)[nH]4)cc2)cc1)C3` [Compound I-3, {(2S,5S)-2-[(S)-2-(4′-{2-[(S)-1-((S)-2-Methoxycarbonylamino-3-methyl-butyryl)-4,4-difluoropyrrolidin-2-yl]-3H-imidazol-4-yl}-biphenyl-4-ylcarbamoyl)-pyrrolidine-1-carbonyl]-4-oxo-1,2,4,5,6,7-hexahydro-azepino[3,2,1-hi]indol-5-yl}-carbamic acid methyl ester]: the IC50 is 147 nM.

Take `COC(=O)N[C@H]1CCc2cccc3c2N(C1=O)[C@H](C(=O)N1CCC[C@H]1C(=O)Nc1ccc(-c2ccc(-c4[nH]c([C@@H]5CCCN5C(=O)[C@@H](NC(=O)OC)C(C)C)nc4Cl)cc2)cc1)C3` [Compound I-4, {(2S,5S)-2-[(S)-2-(4′-{5-Chloro-2-[(S)-1-((S)-2-methoxycarbonylamino-3-methyl-butyryl)-pyrrolidin-2-yl]-3H-imidazol-4-yl}-biphenyl-4-ylcarbamoyl)-pyrrolidine-1-carbonyl]-4-oxo-1,2,4,5,6,7-hexahydro-azepino[3,2,1-hi]indol-5-yl}-carbamic acid methyl ester]: the IC50 came to 1.38 nM.

On to `COC(=O)N[C@H](C(=O)N1CCC[C@H]1C(=O)N1CCC[C@H]1C(=O)Nc1ccc(-c2ccc(-c3cnc([C@@H]4CCCN4C(=O)[C@@H](NC(=O)OC)C(C)C)[nH]3)cc2)cc1)C(C)C` [Compound I-5, ((S)-1-{(S)-2-[(S)-2-(4′-{2-[(S)-1-((S)-2-Methoxycarbonylamino-3-methyl-butyryl)-pyrrolidin-2-yl]-3H-imidazol-4-yl}-biphenyl-4-ylcarbamoyl)-pyrrolidine-1-carbonyl]-pyrrolidine-1-carbonyl}-2-methyl-propyl)-carbamic acid methyl ester], for which the IC50 worked out at 4.87 nM.

For `COC(=O)N[C@H](C(=O)N1CCC[C@H]1c1ncc(-c2ccc(-c3ccc(NC(=O)[C@@H]4CCCN4C(=O)[C@@H]4CCCN4C(=O)[C@H](NC(=O)OC)c4ccccc4)cc3)cc2)[nH]1)C(C)C` [Compound I-6, [(S)-1-((S)-2-{5-[4′-({(S)-1-[(S)-1-((R)-2-Methoxycarbonylamino-2-phenyl-acetyl)-pyrrolidine-2-carbonyl]-pyrrolidine-2-carbonyl}-amino)-biphenyl-4-yl]-1H-imidazol-2-yl}-pyrrolidine-1-carbonyl)-2-methyl-propyl]-carbamic acid methyl ester], the concentration for half-maximal inhibition (IC50) is 69.9 nM.
